Tests used:
[1] = Liver microsome stability, dog; assay type: in vitro ADME; details: dog liver microsomes 0.25 mg/mL, 1 μM compound, 37° C., 30 minutes, NADPH
Protocol: (§1) The stability of liver microsomes due to the compounds prepared according to Examples 1 to 14 was confirmed. Specifically, four types of liver microsomes (human, dog, rat, and mouse, each 0.25 mg/mL), a 0.1 M phosphate buffer solution (pH 7.4), and each of the compounds at a concentration of 1 μM were mixed and pre-cultured at 37° C. for 5 minutes and further cultured at 37° C. for 30 minutes together with an NADPH generation system solution added thereto. Thereafter, the reaction was terminated by adding an acetonitrile solution containing an internal standard material (chlorpropamide) and centrifuged for 5 minutes (14,000 rpm, 4° C.), and then a supernatant was injected into an LC-MS/MS system for analysis of substrate drugs to thereby evaluate metabolic stability due to 8 types of compounds.
(§2) The amount of the substrate remaining after the reaction was analyzed using the Shimadzu Nexera XR system and TSQ Vantage (Thermo). In an HPLC column, Kinetex XB-C18 (2.1 mm×100 mm, particle size of 2.6 μm; Phenomenex, USA) was used, and mobile phases were (A) distilled water containing 0.1% formic acid and (B) acetonitrile containing 0.1% formic acid. Analyst software (version 1.6.3) and Xcalibur (version 1.6.1) were used for data analysis.

Tau-BiFC cells = test: Cell viability (stained nuclei count) in tau-BiFC cells; details: 10 μM compound; stained nuclei relative to Forskolin-only group (100%), 48 hours
Protocol: (§3) In order to select novel tau protein aggregation—inhibiting substances, tau-BiFC cell model, in which formation of tau oligomers in living cells is easily observed, was used. Tau-BiFC cells were aliquoted into a 384-well plate. […] After 48 hours, nuclei in the cells were stained using Hoechst (at a treatment concentration of 2 μg/mL), and BiFC fluorescence intensity was automatically measured using Operetta (PerkinElmer) to count stained nuclei in each well out of the entire well plate. […] Furthermore, the degree of cytotoxicity induced by the newly synthesized compound was also measured based on the 100% cell viability of the group treated only with Forskolin as a reference, and the cytotoxicity value of each compound was calculated using the equation “(number of stained nuclei in group treated with compound/number of stained nuclei in group treated with Forskolin)×100”.
(§4) After 48 hours, tau protein aggregation reaction and degrees of cytotoxicity were analyzed by observing images of the cells. IC50 and toxicity of the compounds were analyzed by nonlinear regression analysis of Prism software (Graph Pad).

[2] = Liver microsome stability, human; assay type: in vitro ADME; details: human liver microsomes 0.25 mg/mL, 1 μM compound, 37° C., 30 minutes, NADPH
Protocol: as §1, §2

CYP1A2 = target: T1, CYP1A2 (Homo sapiens, UniProt P05177); test: CYP coenzyme activity in human liver microsomes, CYP1A2; assay type: in vitro ADME; details: 10 μM compound, human liver microsomes 0.25 mg/mL, substrate phenacetin, 15 minutes
T1 construct: human liver microsomes (0.25 mg/mL); from tissue; host or cells: human liver microsomes
T1 sequence (P05177 1-516): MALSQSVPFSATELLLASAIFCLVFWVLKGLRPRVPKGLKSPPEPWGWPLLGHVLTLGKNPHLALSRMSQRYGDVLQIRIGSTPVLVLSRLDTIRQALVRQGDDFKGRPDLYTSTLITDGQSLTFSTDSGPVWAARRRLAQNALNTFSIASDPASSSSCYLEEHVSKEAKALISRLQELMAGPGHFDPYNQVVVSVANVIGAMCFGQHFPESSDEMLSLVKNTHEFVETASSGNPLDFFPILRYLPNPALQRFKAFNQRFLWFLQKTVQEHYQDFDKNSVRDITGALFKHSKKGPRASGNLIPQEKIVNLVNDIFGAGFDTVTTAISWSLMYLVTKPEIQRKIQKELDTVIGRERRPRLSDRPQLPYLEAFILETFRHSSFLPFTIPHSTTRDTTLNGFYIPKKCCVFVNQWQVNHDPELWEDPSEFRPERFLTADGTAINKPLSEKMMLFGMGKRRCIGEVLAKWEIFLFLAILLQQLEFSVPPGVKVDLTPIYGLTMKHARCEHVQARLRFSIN
Protocol: (§5) Specifically, human liver microsomes (0.25 mg/mL), a 0.1 M phosphate buffer solution (pH 7.4), a substrate drug cocktail of five types of drug metabolism enzymes (50 μM phenacetin, 10 μM diclofenac, 100 μM S-mephenytoin, 5 μM dextromethorphan, and 2.5 μM midazolam), and the compound at a concentration of 0 μM or 10 μM were mixed and pre-cultured at 37° C. for 5 minutes, and then further cultured at 37° C. for 15 minutes together with an NADPH generation system solution added thereto. Thereafter, the reaction was terminated by adding an acetonitrile solution containing an internal standard material (terfenadine) and centrifuged for 5 minutes (14,000 rpm, 4° C.), and then a supernatant was injected into an LC-MS/MS system for simultaneous analysis of metabolites of the substrate drugs to thereby evaluate the inhibitory effects on drug metabolism.
(§6) Metabolites of each CYP coenzyme indicator drug generated through the reaction were analyzed using the Shimadzu Nexera XR system and TSQ Vantage (Thermo). In an HPLC column, Kinetex C18 (2.1 mm×100 mm, 2.6 μm particle size; Phenomenex, USA) was used, and mobile phases were (A) distilled water containing 0.1% formic acid and (B) acetonitrile containing 0.1% formic acid, and a gradient program shown in Table 3 was applied thereto.
(§7) The generated metabolites were quantified using a multiple reaction monitoring (MRM) quantification mode, and Xcalibur (version 1.6.1) was used for data analysis. In order to express the inhibitory effects of the novel compounds prepared according to the examples of the present invention on CYP coenzyme activity, CYP coenzyme activities (%) with respect to the control group not treated with any compound are shown in Table 4 below.

CYP3A4 = target: T2, CYP3A4 (Homo sapiens, UniProt P08684); test: CYP coenzyme activity in human liver microsomes, CYP3A4; assay type: in vitro ADME; details: 10 μM compound, human liver microsomes 0.25 mg/mL, substrate midazolam, 15 minutes
T2 construct: human liver microsomes (0.25 mg/mL); from tissue; host or cells: human liver microsomes
T2 sequence (P08684 whole entry): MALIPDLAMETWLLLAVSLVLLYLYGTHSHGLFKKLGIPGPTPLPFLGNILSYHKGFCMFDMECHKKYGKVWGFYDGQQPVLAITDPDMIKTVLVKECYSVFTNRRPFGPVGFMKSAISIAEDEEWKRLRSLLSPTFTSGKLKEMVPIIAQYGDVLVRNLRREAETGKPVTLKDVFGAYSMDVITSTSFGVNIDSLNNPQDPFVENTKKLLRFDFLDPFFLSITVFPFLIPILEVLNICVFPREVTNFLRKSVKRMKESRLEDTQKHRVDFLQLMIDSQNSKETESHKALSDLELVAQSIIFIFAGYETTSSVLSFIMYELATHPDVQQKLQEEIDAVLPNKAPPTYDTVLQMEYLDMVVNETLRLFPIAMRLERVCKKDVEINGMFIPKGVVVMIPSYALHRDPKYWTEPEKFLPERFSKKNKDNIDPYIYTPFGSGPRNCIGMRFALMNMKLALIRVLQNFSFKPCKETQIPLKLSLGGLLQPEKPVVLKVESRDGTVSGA
Protocol: as §5, §6, §7

CYP2D6 = target: T3, CYP2D6 (Homo sapiens, UniProt P10635); test: CYP coenzyme activity in human liver microsomes, CYP2D6; assay type: in vitro ADME; details: 10 μM compound, human liver microsomes 0.25 mg/mL, substrate dextromethorphan, 15 minutes
T3 construct: human liver microsomes (0.25 mg/mL); from tissue; host or cells: human liver microsomes
T3 sequence (P10635 whole entry): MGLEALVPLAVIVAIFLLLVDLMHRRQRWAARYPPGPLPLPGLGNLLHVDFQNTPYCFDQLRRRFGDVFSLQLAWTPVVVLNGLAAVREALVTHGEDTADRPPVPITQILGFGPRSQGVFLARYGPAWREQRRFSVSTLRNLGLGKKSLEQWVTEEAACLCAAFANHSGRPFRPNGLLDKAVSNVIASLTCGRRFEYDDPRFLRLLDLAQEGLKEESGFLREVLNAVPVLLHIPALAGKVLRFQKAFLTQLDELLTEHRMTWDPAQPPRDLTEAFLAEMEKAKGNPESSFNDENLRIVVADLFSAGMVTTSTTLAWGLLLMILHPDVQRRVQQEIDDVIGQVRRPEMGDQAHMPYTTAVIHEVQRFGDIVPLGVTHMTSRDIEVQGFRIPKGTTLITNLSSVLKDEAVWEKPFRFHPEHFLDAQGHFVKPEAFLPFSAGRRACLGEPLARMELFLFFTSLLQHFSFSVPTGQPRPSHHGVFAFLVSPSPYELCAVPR
Protocol: as §5, §6, §7

tau protein = target: T4, tau protein (Homo sapiens, UniProt P10636); test: Tau-BiFC cell model, Forskolin-induced tau protein aggregation; assay type: cell-based; details: for Tau BiFC in cells Response (%, @10 μM): 10 μM compound, BiFC fluorescence relative to Forskolin-only group (100% tau protein-aggregated state), 48 hours
T4 construct: fused on or other part: Split Venus fragments VN173 and VC155, each fused to one copy of tau as BiFC reporter halves
T4 sequence (P10636 2-441 isoform P10636-8 limits assumed): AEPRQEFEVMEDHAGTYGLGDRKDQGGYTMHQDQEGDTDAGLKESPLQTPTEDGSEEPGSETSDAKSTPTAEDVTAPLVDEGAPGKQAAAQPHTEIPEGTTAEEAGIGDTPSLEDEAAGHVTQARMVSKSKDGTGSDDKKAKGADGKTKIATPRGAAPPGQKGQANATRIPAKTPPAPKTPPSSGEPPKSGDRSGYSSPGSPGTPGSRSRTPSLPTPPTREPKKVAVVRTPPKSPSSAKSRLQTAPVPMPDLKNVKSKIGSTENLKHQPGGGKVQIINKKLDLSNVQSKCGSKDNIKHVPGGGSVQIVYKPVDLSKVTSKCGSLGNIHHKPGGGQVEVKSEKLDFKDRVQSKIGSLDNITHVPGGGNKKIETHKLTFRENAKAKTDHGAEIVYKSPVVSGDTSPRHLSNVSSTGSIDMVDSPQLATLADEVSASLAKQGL
Protocol: as §3, §4

[3] = Liver microsome stability, rat; assay type: in vitro ADME; details: rat liver microsomes 0.25 mg/mL, 1 μM compound, 37° C., 30 minutes, NADPH
Protocol: as §1, §2

CYP2C19 = target: T5, CYP2C19 (Homo sapiens, UniProt P33261); test: CYP coenzyme activity in human liver microsomes, CYP2C19; assay type: in vitro ADME; details: 10 μM compound, human liver microsomes 0.25 mg/mL, substrate S-mephenytoin, 15 minutes
T5 construct: human liver microsomes (0.25 mg/mL); from tissue; host or cells: human liver microsomes
T5 sequence (P33261 whole entry): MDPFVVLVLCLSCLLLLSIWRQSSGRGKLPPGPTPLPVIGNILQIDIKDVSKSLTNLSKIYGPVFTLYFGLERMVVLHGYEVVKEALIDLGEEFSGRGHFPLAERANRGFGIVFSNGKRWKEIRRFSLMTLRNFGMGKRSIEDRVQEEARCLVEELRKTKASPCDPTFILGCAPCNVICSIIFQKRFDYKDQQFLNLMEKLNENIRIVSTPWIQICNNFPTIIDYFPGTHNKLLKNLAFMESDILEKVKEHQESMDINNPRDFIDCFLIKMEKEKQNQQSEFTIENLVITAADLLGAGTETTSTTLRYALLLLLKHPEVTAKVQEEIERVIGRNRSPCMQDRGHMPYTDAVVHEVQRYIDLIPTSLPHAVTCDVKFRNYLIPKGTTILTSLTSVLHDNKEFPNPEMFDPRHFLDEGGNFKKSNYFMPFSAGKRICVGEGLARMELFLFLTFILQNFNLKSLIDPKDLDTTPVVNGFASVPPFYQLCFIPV
Protocol: as §5, §6, §7

[4] = Liver microsome stability, mouse; assay type: in vitro ADME; details: mouse liver microsomes 0.25 mg/mL, 1 μM compound, 37° C., 30 minutes, NADPH
Protocol: as §1, §2

CYP2C9 = target: T6, CYP2C9 (Homo sapiens, UniProt P11712); test: CYP coenzyme activity in human liver microsomes, CYP2C9; assay type: in vitro ADME; details: 10 μM compound, human liver microsomes 0.25 mg/mL, substrate diclofenac, 15 minutes
T6 construct: human liver microsomes (0.25 mg/mL); from tissue; host or cells: human liver microsomes
T6 sequence (P11712 whole entry): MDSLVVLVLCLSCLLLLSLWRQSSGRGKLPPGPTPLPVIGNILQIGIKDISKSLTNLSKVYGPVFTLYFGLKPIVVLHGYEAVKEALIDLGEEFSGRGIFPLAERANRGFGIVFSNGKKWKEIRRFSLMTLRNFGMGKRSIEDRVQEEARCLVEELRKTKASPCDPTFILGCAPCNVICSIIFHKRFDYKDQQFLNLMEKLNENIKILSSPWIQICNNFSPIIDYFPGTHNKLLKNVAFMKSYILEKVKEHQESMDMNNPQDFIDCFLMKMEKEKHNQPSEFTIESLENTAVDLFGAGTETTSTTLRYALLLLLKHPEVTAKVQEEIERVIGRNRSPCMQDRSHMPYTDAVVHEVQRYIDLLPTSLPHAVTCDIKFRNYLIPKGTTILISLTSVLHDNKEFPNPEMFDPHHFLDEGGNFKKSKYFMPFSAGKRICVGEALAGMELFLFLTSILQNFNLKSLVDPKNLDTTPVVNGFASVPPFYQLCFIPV
Protocol: as §5, §6, §7

With `COCCN1N=C(c2ccc(NN=C(C#N)C#N)cc2)C(C)CC1=O` (stereo not drawn) [Example 5, (4-(1-(2-methoxyethyl)-4-methyl-6-oxo-1,4,5,6-tetrahydropyridazin-3-yl)phenyl)carbonohydrazonoyl dicyanide] the “Dog (%) amount remaining after the reaction” value (from here on “Dog (%) amount remaining”) [1] was over 100%, the “Cell viability (%, @10 μM)” value (Tau-BiFC cells) was 95.7% and the “Human (%) amount remaining after the reaction” value (shortened to “Human (%) amount remaining”) [2] was 30.9%. For the same molecule, the “CYP1A2 activity (%) with respect to control group not treated with any compound” value (CYP1A2) was 70%, the “CYP3A4 activity (%) with respect to control group not treated with any compound” value (CYP3A4) was 74.2% and the “CYP2D6 activity (%) with respect to control group not treated with any compound” value (CYP2D6) was 70.4%. The IC50 (tau protein) was 0.09 µM, the “Tau BiFC in cells Response (%, @10 μM)” value (tau protein) was 15.6% and the “Rat (%) amount remaining after the reaction” value (from here on “Rat (%) amount remaining”) [3] was 90.9%. For the same molecule, the “CYP2C19 activity (%) with respect to control group not treated with any compound” value (CYP2C19) was 63.4%, the “Mouse (%) amount remaining after the reaction” value (shortened to “Mouse (%) amount remaining”) [4] was 94.9% and the “CYP2C9 activity (%) with respect to control group not treated with any compound” value (CYP2C9) was 71.5%.
With `CC1CC(=O)N(C(C)C)N=C1c1ccc(NN=C(C#N)C#N)cc1` (stereo not drawn) [Example 2, (4-(1-isopropyl-4-methyl-6-oxo-1,4,5,6-tetrahydropyridazin-3-yl)phenyl)carbonohydrazonoyl dicyanide] the “Dog (%) amount remaining” value [1] was over 100%, the “Cell viability (%, @10 μM)” value (Tau-BiFC cells) was 102.8% and the “Human (%) amount remaining” value [2] was 63.6%. The “CYP1A2 activity (%) with respect to control group not treated with any compound” value (CYP1A2) was 80.5%, the “CYP3A4 activity (%) with respect to control group not treated with any compound” value (CYP3A4) was 74.6% and the “CYP2D6 activity (%) with respect to control group not treated with any compound” value (CYP2D6) was 84.9%. For the same molecule, the IC50 (tau protein) was 0.4 µM, the “Tau BiFC in cells Response (%, @10 μM)” value (tau protein) was 0% and the “Rat (%) amount remaining” value [3] was 92.5%. For the same molecule, the “CYP2C19 activity (%) with respect to control group not treated with any compound” value (CYP2C19) was 64.7%, the “Mouse (%) amount remaining” value [4] was 89% and the “CYP2C9 activity (%) with respect to control group not treated with any compound” value (CYP2C9) was 65.7%.
With `CCN1N=C(c2ccc(NN=C(C#N)C#N)cc2)C(C)CC1=O` (stereo not drawn) [Example 3, (4-(1-ethyl-4-methyl-6-oxo-1,4,5,6-tetrahydropyridazin-3-yl)phenyl)carbonohydrazonoyl dicyanide] the “Dog (%) amount remaining” value [1] was 91.9%, the “Cell viability (%, @10 μM)” value (Tau-BiFC cells) was 68.2% and the “Human (%) amount remaining” value [2] was 90.3%. For the same molecule, the “CYP1A2 activity (%) with respect to control group not treated with any compound” value (CYP1A2) was over 100%, the “CYP3A4 activity (%) with respect to control group not treated with any compound” value (CYP3A4) was over 100% and the “CYP2D6 activity (%) with respect to control group not treated with any compound” value (CYP2D6) was 93.6%. The IC50 (tau protein) was 0.09 µM, the “Tau BiFC in cells Response (%, @10 μM)” value (tau protein) was 0% and the “Rat (%) amount remaining” value [3] was 89.6%. For the same molecule, the “CYP2C19 activity (%) with respect to control group not treated with any compound” value (CYP2C19) was over 100%, the “Mouse (%) amount remaining” value [4] was 89.6% and the “CYP2C9 activity (%) with respect to control group not treated with any compound” value (CYP2C9) was 99.9%.
In the case of `CC1CC(=O)N(C2CC2)N=C1c1ccc(NN=C(C#N)C#N)cc1` (stereo not drawn) [Example 6, (4-(1-cyclopropyl-4-methyl-6-oxo-1,4,5,6-tetrahydropyridazin-3-yl)phenyl)carbonohydrazonoyl dicyanide], the “Dog (%) amount remaining” value [1] is reported as 99.5%, the “Cell viability (%, @10 μM)” value (Tau-BiFC cells) is reported as 62.9% and the “Human (%) amount remaining” value [2] is reported as 85%. For the same molecule, the “CYP1A2 activity (%) with respect to control group not treated with any compound” value (CYP1A2) was 78.6%, the “CYP3A4 activity (%) with respect to control group not treated with any compound” value (CYP3A4) was 79.5% and the “CYP2D6 activity (%) with respect to control group not treated with any compound” value (CYP2D6) was 72.6%. For the same molecule, the IC50 (tau protein) was 0.07 µM, the “Tau BiFC in cells Response (%, @10 μM)” value (tau protein) was 0% and the “Rat (%) amount remaining” value [3] was 95.8%. The “CYP2C19 activity (%) with respect to control group not treated with any compound” value (CYP2C19) was 74.2%, the “Mouse (%) amount remaining” value [4] was 92.7% and the “CYP2C9 activity (%) with respect to control group not treated with any compound” value (CYP2C9) was 74.2%.
